The subject of experiment [1] is Blautia. Kind of experiment: Spearman correlation between estimated daily nutrient intake (food questionnaire) and relative abundance of the bacterial genus (16S sequencing of faecal samples). The settings on record: nutrient intake vs relative abundance of Blautia, whole cohort (215 individus). The source says: (§1) Les tests statistiques suivants ont été réalisés : • Corrélations non paramétriques de Spearman entre les apports en nutriments calculés et chacune des cinq bactéries d'intérêt. • Corrélations non paramétriques de Spearman entre les fréquences de consommation des aliments du questionnaire alimentaire et chacune des cinq bactéries d'intérêt. • Régressions ordinales entre les fréquences de consommation des aliments du questionnaire alimentaire et chacune des cinq bactéries d'intérêt.
(§2) Après avoir créé leur compte personnel sur le site internet de la société de Luxia Scientific, les clients peuvent remplir de manière volontaire un questionnaire alimentaire. Ce questionnaire possède neuf sous-groupes de questions, chacun constituant une catégorie d'aliments. À l'intérieur de ces sous-groupes, une liste complète d'aliments est fournie et donne aux personnes la possibilité de choisir la fréquence à laquelle elles ont consommé chaque aliment possible au cours du dernier mois dans une portion spécifiée.
(§3) Un tableau des apports nutritionnels par portion d'aliments présents dans le questionnaire a été ensuite créé. Pour créer ce tableau, la Table de composition alimentaire française Ciqual de l'ANSES du 07/07/2020 (https://ciqual.anses.fr/) a été utilisée.
(§4) L'apport en omégas-3 a été calculé en additionnant les valeurs d'apports en acide alpha-linolénique (18:3; ALA), en acide eïcosapentaénoïque (20:5; EPA) et en acide docosahexaénoïque (22:6; DHA). L'apport en omégas-6 a été calculé en additionnant les valeurs d'apports en acide linoléique (18:2; […]) et en acide arachidonique (20:4; ARA) qui sont les deux présents dans la Table Ciqual.
(§5) À cette étape, on possède d'une part les réponses des utilisateurs volontaires pour répondre au questionnaire alimentaire, et, d'autre part, on possède les apports nutritionnels mensuel pour chaque réponse possible de chaque aliment du questionnaire. Il convient ensuite de calculer la somme de tous les apports pour chaque réponse de l'individu au questionnaire, puis de la diviser par 30 pour obtenir l'apport nutritionnel quotidien moyen estimé pour cet individu.
(§6) On obtient ainsi un document décrivant les apports nutritionnels de 70 nutriments chez 288 individus.
(§7) Ces deux fichiers sont ainsi composés au final des données alimentaires de 288 individus. Au début de l'analyse, ont été supprimées les données de 2 individus qui sont des enfants de moins de 4 ans car à cet âge, leur microbiote est encore trop immature pour être représentatif des effets de l'alimentation sur leurs populations bactériennes. On utilise donc les données alimentaires de 286 individus pour les analyses de ce rapport.
(§8) Les résultats ayant servi à l'analyse du microbiote intestinal ont été générés en suivant le processus d'analyse du Dispositif Médical de Diagnostic In Vitro 1test1. En bref, les échantillons fécaux ont été prélevés avec un tube de collecte contenant un conservant afin de permettre le transport à température non controlée depuis l'utilisateur vers le laboratoire d'analyse (DNA/RNA Shield de Zymo Research). L'ADN a ensuite été extrait et le séquençage de la région v3-v4 ARN16s réalisé par le laboratoire IBBL au Luxembourg sur un séquenceur MiSeq d'Illumina selon le protocol en application (peut-être rajouter une référence publication). […]

Experiment [2] relates to Faecalibacterium. The experiment is described as above. The following applies: nutrient intake vs relative abundance of Faecalibacterium, whole cohort (215 individus).
Source text: as §1, §2, §3, §4, §5, §6, §7, §8

Experiment [3] relates to Clostridium_XVIII. The description is as above. The following applies: nutrient intake vs relative abundance of Clostridium_XVIII, whole cohort (215 individus).
Source text: as §1, §2, §3, §4, §5, §6, §7, §8

The subject of experiment [4] is microbiote intestinal. Kind of experiment: Short-term colonic incubations (in vitro faecal fermentation, simplified SHIME) with faecal inocula of Parkinson and healthy donors. Type of experiment: cell-based, humain. The settings on record: for pH (activité de fermentation): 0-48h. The source says:
Pour valider l'effet bénéfique des 5 nutriments d'intérêt sur le microbiote intestinal, une étude In Vitro a été réalisée sur des microbiotes reconstitués à partir de selles d'individus sains et de patients souffrant de la maladie de Parkinson. En particulier, l'effet bénéfique de l'apport de ces nutriments a été évalué à travers l'augmentation de la production de butyrate et d'acides gras à chaine courte en général, ainsi que les changements observés au niveau des métabolites.
Trois donneurs sains et deux donneurs atteints de la maladie de Parkinson ont été recrutés. Pour évaluer les effets de chacun des nutriments sur le microbiote intestinal des donneurs susmentionnés, des simulations coliques à court terme ont été effectuées. L'évaluation de chaque nutriment a été basée 1) sur les effets sur la fermentation microbienne globale (pH) et 2) sur l'activité métabolique microbienne (production de AGCC, de lactate et d'un panel d'environ 400 métabolites).
Les approches in vitro pour étudier le tractus gastro-intestinal et les processus microbiens intestinaux offrent une excellente configuration expérimentale pour étudier les processus qui se développent dans le microbiome intestinal humain. Le dépistage des effets de composés sélectionnés sur le microbiote intestinal peut être effectué au moyen d'une fermentation fécale réalisée dans un seul réacteur, ce qui permet d'évaluer la capacité de substrats spécifiques à moduler la composition et l'activité microbiennes intestinales. Ces expériences représentent une simulation simplifiée du Simulateur continu de l'écosystème microbien intestinal humain (SHIME®).
Les matières fécales ont été recueillies auprès de cinq donneurs (deux donneurs atteints de la maladie de Parkinson (PD) et trois donneurs sains (HD)).
Les matières fécales ont été recueillies dans des conteneurs anaérobies et conservées à la température du réfrigérateur jusqu'à un traitement ultérieur. Dans les 48 heures suivant la défécation, des suspensions fécales (15 % (p/v)) ont été préparées dans un tampon phosphate et mélangées dans un rapport 1 : 1 avec un cryoprotecteur optimisé en interne dans une chambre anaérobie. Les suspensions obtenues ont été immédiatement surgelées dans de l'azote liquide puis conservées à -80°C (cryostock). Juste avant l'expérience, les échantillons ont été décongelés et immédiatement ajoutés aux réacteurs, de sorte qu'un seul cycle de congélation-décongélation a été appliqué sur chaque inoculum individuel.
Un test de dépistage à court terme consiste généralement en une incubation colique d'une dose unique d'un composé d'essai dans des conditions représentatives du gros intestin proximal, en utilisant des inoculums bactériens provenant de donneurs sélectionnés comme sources microbiennes. Cinq traitements et une condition de référence (contrôle négatif) ont été testés par donneur. La composition du milieu dans le contrôle et les traitements est exactement la même, mais le contrôle ne contient pas l'ingrédient de test. Le contrôle est inclus pour déterminer les changements de base dans les différents paramètres étudiés (pH, production d'AGCC, lactate et métabolites liés à l'intestin) résultant de la fermentation des nutriments dans le milieu nutritionnel appauvri en glucides qui est introduit avec les ingrédients d'essai dans les réacteurs (voir ci-dessous), pour fournir des nutriments essentiels à la population microbienne. Chaque condition a été testée en une seule répétition chez cinq donneurs.
Un milieu nutritionnel appauvri en glucides (contenant les nutriments basaux du côlon) a été ajouté à chaque réacteur (y compris le contrôle), ainsi que 10 % (v/v) d'un inoculum fécal cryoconservé à 7,5 % (qui a servi de source microbienne) de chaque des cinq donneurs, portant le volume total dans les réacteurs à 70 mL. Des billes porteuses de mucine ont été incluses dans chaque réacteur, pour simuler la couche de mucus du côlon. […]

Where [5] appears, read: healthy individuals, vs control.
[6] abbreviates: two Parkinson patients, vs control.

Values joined by “and” are separate entries in the source; they are usually repeats but may differ in a detail not shown here. Equal values may be shown once. “Also recorded” adds a separate entry of the source.

For the compound `CC1=C(/C=C/C(C)=C/C=C/C(C)=C/C=C/C=C(C)/C=C/C=C(C)/C=C/C2=C(C)CCCC2(C)C)C(C)(C)CCC1` [Beta-Carotène, bêta-carotène], the corrélation in experiment [1] was 0,14; in experiment [1] (listed as bêta-carotène), “corrélation positive significative au seuil de 5%”; in experiment [2], 0,12; in experiment [3], 0,11.
Turning to `CCC=CCC=CCC=CCC=CCC=CCC=CCCC(=O)O` [DHA, acide docosahexaénoïque], in experiment [3], the corrélation is 0,11 and 0,10.
Consider `CCCC(=O)O` [butyrate de sodium], for which the production de butyrate result in experiment [4] (Parkinson patients, vs control, added 10 mM butyrate taken into account) is listed as “a fortement stimulé la production de butyrate; also recorded: a stimulé la production de butyrate dans la population parkinsonienne”; in experiment [4] (healthy individuals, vs control (blank)), “n'a pas stimulé la production de butyrate; also recorded: pas dans la population en bonne santé”. Besides, the “production d'acétate” value in experiment [4] (setting [5]) and in experiment [4] (setting [6]) was “concentrations d'acétate similaires à celles du contrôle” in each case. The production de propionate result is “concentrations de propionate similaires à celles du contrôle” in experiment [4] (setting [5]) and “légers effets de stimulation” in experiment [4] (setting [6]). The “pH (activité de fermentation)” value in experiment [4] (setting [5]) is given as “baisses de pH les plus légères”; in experiment [4] (setting [6]) it was “profils de pH similaires à ceux du contrôle”.

(Values after patent publication EP4119135A1, “METHODS FOR REBALANCING THE INTESTINAL FLORA IN PATIENTS SUFFERING FROM PARKINSON'S DISEASE” (Luxia Scientific, priority 2021, dated 2023).)
